In general, IC50 refers to the midpoint of a concentration-inhibition curve. A high value points to lower potency.

This passage reports IC50 results from patent publication US20120101095A1, “ALKOXY-THIENOPYRIMIDINES AS TGF-BETA RECEPTOR KINASE MODULATORS” (priority 2009, published 2012).

The target of the test is T1, GST-ALK5 (Homo sapiens, UniProt P36897).
T1 sequence (P36897 34-503): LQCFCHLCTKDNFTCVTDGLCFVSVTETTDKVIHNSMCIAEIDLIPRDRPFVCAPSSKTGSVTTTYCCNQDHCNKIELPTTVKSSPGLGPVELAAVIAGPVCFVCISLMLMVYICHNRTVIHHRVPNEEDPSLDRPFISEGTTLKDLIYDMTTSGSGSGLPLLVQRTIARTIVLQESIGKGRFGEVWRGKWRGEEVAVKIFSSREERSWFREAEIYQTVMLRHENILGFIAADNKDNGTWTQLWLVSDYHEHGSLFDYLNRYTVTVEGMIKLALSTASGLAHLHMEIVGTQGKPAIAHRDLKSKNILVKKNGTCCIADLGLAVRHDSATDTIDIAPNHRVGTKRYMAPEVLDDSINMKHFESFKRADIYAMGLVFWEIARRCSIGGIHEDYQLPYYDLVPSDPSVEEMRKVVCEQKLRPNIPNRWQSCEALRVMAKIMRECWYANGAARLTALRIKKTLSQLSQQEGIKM
The experiment in a line: In-vitro (enzyme) kinase assay, 384-well flashplate, GST-SMAD2 substrate. The class given is biochemical. As to conditions: 31.2 nM GST-ALK5, 439 nM GST-SMAD2, 3 mM ATP, 30° C., 45 min. On the procedure:
In-Vitro (Enzyme) Assay for Determination of the Efficacy of Inhibitors of the Inhibition of TGF-Beta-Mediated Effects
The kinase assay was carried out as 384-well flashplate assay. 31.2 nM of GST-ALK5, 439 nM of GST-SMAD2 and 3 mM of ATP (with 0.3 μCi of ^33P-ATP/well) were incubated in a total volume of 35 μl (20 mM of HEPES, 10 mM of MgCl2, 5 mM of MnCl2, 1 mM of DTT, 0.1% of BSA, pH 7.4) without or with test substance (5-10 concentrations) at 30° C. for 45 min. The reaction was stopped using 25 μl of 200 mM EDTA solution, filtered with suction at room temperature after 30 min, and the wells were washed with 3 times 100 μl of 0.9% NaCl solution. Radioactivity was measured in the TopCount. The IC50 values were calculated using RS1 (Table 1). Above and below, all temperatures were indicated in ° C.
`N#CCCOc1nc(-c2cccc(Cl)c2)c2c(N)c(C(N)=O)sc2n1` [No 72, 5-Amino-4-(3-chloro-phenyl)-2-(2-cyano-ethoxy)-thieno[2,3-d]pyrimidine-6-carboxylic acid amide] displayed an IC50 below 100 nM.
In the case of `Cc1cccc(-c2nc(OCc3ccc(OCCN4CCOCC4)cc3)nc3sc(C(N)=O)c(N)c23)n1` [No 35, 5-Amino-4-(6-methyl-pyridin-2-yl)-2-[4-(2-morpholin-4-yl-ethoxy)-benzyloxy]-thieno[2,3-d]pyrimidine-6-carboxylic acid amide] it was 100 to 500 nM.
As to `NC(=O)c1sc2nc(OC/C=C/CO)nc(-c3cccc(Cl)c3)c2c1N` [No 71, 5-Amino-4-(3-chloro-phenyl)-2-((E)-4-hydroxy-but-2-enyloxy)-thieno[2,3-d]pyrimidine-6-carboxylic acid amide], the IC50 was below 100 nM.
The value for `NC(=O)c1sc2nc(OCCCN3CCCC3=O)nc(-c3cccc(Cl)c3)c2c1N` [No 54, 5-Amino-4-(3-chloro-phenyl)-2-[3-(2-oxo-pyrrolidin-1-yl)-propoxy]-thieno[2,3-d]pyrimidine-6-carboxylic acid amide] was 100 to 500 nM; that for `NC(=O)c1sc2nc(OCC3CCC3)nc(-c3cccc(C(F)(F)F)c3)c2c1N` [No 10, 5-Amino-2-cyclobutylmethoxy-4-(3-trifluoromethyl-phenyl)-thieno[2,3-d]pyrimidine-6-carboxylic acid amide] was above 1000 nM; that for `NC(=O)c1sc2nc(O[C@H]3CNC(=O)C3)nc(-c3cccc(Cl)c3)c2c1N` [No 63, 5-Amino-4-(3-chloro-phenyl)-2-((R)-5-oxo-pyrrolidin-3-yloxy)-thieno[2,3-d]pyrimidine-6-carboxylic acid amide] was 100 to 500 nM.
In the case of `Cc1ccc(-c2nc(OCc3cnn(C)c3)nc3sc(C(N)=O)c(N)c23)o1` [No 24, 5-Amino-4-(5-methyl-furan-2-yl)-2-(1-methyl-1H-pyrazol-4-ylmethoxy)-thieno[2,3-d]pyrimidine-6-carboxylic acid amide] it was below 100 nM; in that of `Cc1cccc(-c2nc(OCCN3CCCC3=O)nc3sc(C(N)=O)c(N)c23)n1` [No 53, 5-Amino-4-(6-methyl-pyridin-2-yl)-2-[2-(2-oxo-pyrrolidin-1-yl)-ethoxy]-thieno[2,3-d]pyrimidine-6-carboxylic acid amide], 100 to 500 nM; in that of `C=CCOc1nc(-c2cccc(Cl)c2)c2c(N)c(C(N)=O)sc2n1` [No 3, 2-Allyloxy-5-amino-4-(3-chloro-phenyl)-thieno[2,3-d]pyrimidine-6-carboxylic acid amide], below 100 nM.
In the case of `Cc1ccc(-c2nc(OCCCn3cccn3)nc3sc(C(N)=O)c(N)c23)o1` [No 39, 5-Amino-4-(5-methyl-furan-2-yl)-2-(3-pyrazol-1-yl-propoxy)-thieno[2,3-d]pyrimidine-6-carboxylic acid amide] it was 100 to 500 nM; in that of `CNC(=O)CCCOc1nc(-c2cccc(Cl)c2)c2c(N)c(C(N)=O)sc2n1` [No 70, 5-Amino-4-(3-chloro-phenyl)-2-(3-methylcarbamoyl-propoxy)-thieno[2,3-d]pyrimidine-6-carboxylic acid amide], 100 to 500 nM.
Regarding `NC(=O)COc1nc(-c2cccc(Cl)c2)c2c(N)c(C(N)=O)sc2n1` [No 56, 5-Amino-2-carbamoylmethoxy-4-(3-chloro-phenyl)-thieno[2,3-d]pyrimidine-6-carboxylic acid amide], the IC50 is below 100 nM.
Consider `NC(=O)c1sc2nc(OCCC(O)CO)nc(-c3cccc(Cl)c3)c2c1N` (stereo not drawn) [No 62, 5-Amino-4-(3-chloro-phenyl)-2-(3,4-dihydroxy-butoxy)-thieno[2,3-d]pyrimidine-6-carboxylic acid amide], for which the IC50 was below 100 nM.
The value for `Cc1ccc(-c2nc(OCCN3CCOCC3)nc3sc(C(N)=O)c(N)c23)o1` [No 20, 5-Amino-4-(5-methyl-furan-2-yl)-2-(2-morpholin-4-yl-ethoxy)-thieno[2,3-d]pyrimidine-6-carboxylic acid amide] was above 1000 nM; that for `NC(=O)c1sc2nc(OC[C@H]3C[C@@H]3CO)nc(-c3cccc(Cl)c3)c2c1N` [No 60, 5-Amino-4-(3-chloro-phenyl)-2-((1S,2S)-2-hydroxymethyl-cyclopropylmethoxy)-thieno[2,3-d]pyrimidine-6-carboxylic acid amide] was below 100 nM; that for `NC(=O)c1sc2nc(OCCOCCO)nc(-c3cccc(Cl)c3)c2c1N` [No 66, 5-Amino-4-(3-chloro-phenyl)-2-[2-(2-hydroxy-ethoxy)-ethoxy]-thieno[2,3-d]pyrimidine-6-carboxylic acid amide] was 100 to 500 nM.
The compound `NC(=O)c1sc2nc(OC[C@@H]3CCC(=O)N3)nc(-c3cccc(Cl)c3)c2c1N` [No 75, 5-Amino-4-(3-chloro-phenyl)-2-((S)-5-oxo-pyrrolidin-2-ylmethoxy)-thieno[2,3-d]pyrimidine-6-carboxylic acid amide] showed an IC50 of 100 to 500 nM.
The value for `Cc1ccc(-c2nc(OCc3ccncc3)nc3sc(C(N)=O)c(N)c23)o1` [No 30, 5-Amino-4-(5-methyl-furan-2-yl)-2-(pyridin-4-ylmethoxy)-thieno[2,3-d]pyrimidine-6-carboxylic acid amide] was 500 to 1000 nM.
Turning to `NC(=O)c1sc2nc(OCCN3CCCC3=O)nc(-c3cccc(Cl)c3)c2c1N` [No 48, 5-Amino-4-(3-chloro-phenyl)-2-[2-(2-oxo-pyrrolidin-1-yl)-ethoxy]-thieno[2,3-d]pyrimidine-6-carboxylic acid amide], the IC50 was below 100 nM.
On to `C=C(C)CCOc1nc(-c2cccc(C(F)(F)F)c2)c2c(N)c(C(N)=O)sc2n1` [No 17, 5-Amino-2-(3-methyl-but-3-enyloxy)-4-(3-trifluoromethyl-phenyl)-thieno[2,3-d]pyrimidine-6-carboxylic acid amide], for which the IC50 was 100 to 500 nM.
The compound `Cc1cccc(-c2nc(OCCO)nc3sc(C(N)=O)c(N)c23)n1` [No 26, 5-Amino-2-(2-hydroxy-ethoxy)-4-(6-methyl-pyridin-2-yl)-thieno[2,3-d]pyrimidine-6-carboxylic acid amide] came in with an IC50 below 100 nM.
In the case of `NC(=O)c1sc2nc(OCCCCC3NC(=O)NC3=O)nc(-c3cccc(Cl)c3)c2c1N` (stereo not drawn) [No 78, 5-Amino-4-(3-chloro-phenyl)-2-[4-(2,5-dioxo-imidazolidin-4-yl)-butoxy]-thieno[2,3-d]pyrimidine-6-carboxylic acid amide] it was below 100 nM.
The value for `Cc1cccc(-c2nc(OCCn3cccn3)nc3sc(C(N)=O)c(N)c23)n1` [No 27, 5-Amino-4-(6-methyl-pyridin-2-yl)-2-(2-pyrazol-1-yl-ethoxy)-thieno[2,3-d]pyrimidine-6-carboxylic acid amide] was below 100 nM; that for `CC(C)(CO)COc1nc(-c2cccc(Cl)c2)c2c(N)c(C(N)=O)sc2n1` [No 68, 5-Amino-4-(3-chloro-phenyl)-2-(3-hydroxy-2,2-dimethyl-propoxy)-thieno[2,3-d]pyrimidine-6-carboxylic acid amide] was 100 to 500 nM; that for `NC(=O)c1sc2nc(OCCO)nc(-c3cccc(C(F)(F)F)c3)c2c1N` [No 15, 5-Amino-2-(2-hydroxy-ethoxy)-4-(3-trifluoromethyl-phenyl)-thieno[2,3-d]pyrimidine-6-carboxylic acid amide] was 500 to 1000 nM.
In turn, `NC(=O)c1sc2nc(OC/C=C\CO)nc(-c3cccc(Cl)c3)c2c1N` [No 58, 5-Amino-4-(3-chloro-phenyl)-2-((Z)-4-hydroxy-but-2-enyloxy)-thieno[2,3-d]pyrimidine-6-carboxylic acid amide] gave an IC50 below 100 nM.
For `Cc1cccc(-c2nc(OCc3ccn(C)n3)nc3sc(C(N)=O)c(N)c23)n1` [No 28, 5-Amino-2-(1-methyl-1H-pyrazol-3-ylmethoxy)-4-(6-methyl-pyridin-2-yl)-thieno[2,3-d]pyrimidine-6-carboxylic acid amide], the IC50 is below 100 nM.
The value for `NC(=O)c1sc2nc(OCCN3CCNC3=O)nc(-c3cccc(Cl)c3)c2c1N` [No 61, 5-Amino-4-(3-chloro-phenyl)-2-[2-(2-oxo-imidazolidin-1-yl)-ethoxy]-thieno[2,3-d]pyrimidine-6-carboxylic acid amide] was 100 to 500 nM.
The value for `NC(=O)c1sc2nc(OCC3CCC(CO)CC3)nc(-c3cccc(Cl)c3)c2c1N` (stereo not drawn) [No 67, 5-Amino-4-(3-chloro-phenyl)-2-(4-hydroxymethyl-cyclohexylmethoxy)-thieno[2,3-d]pyrimidine-6-carboxylic acid amide] was 100 to 500 nM; that for `Cc1ccc(-c2nc(OCc3cccnc3)nc3sc(C(N)=O)c(N)c23)o1` [No 31, 5-Amino-4-(5-methyl-furan-2-yl)-2-(pyridin-3-ylmethoxy)-thieno[2,3-d]pyrimidine-6-carboxylic acid amide] was 100 to 500 nM.
